Experimental data as given in US20250228835A1, “PYRIDINYLOXYPYRIDINES AND RELATED COMPOUNDS AND THEIR USE IN TREATING MEDICAL CONDITIONS” (Rectify Pharmaceuticals, Inc., priority 2024, published 2025).

What was measured:
ABCA4 P1380L = target: T1, ABCA4 P1380L (Homo sapiens, UniProt P78363, P1380L); experiment: A4 correction dose-response assay: ABCA4 P1380L HiBit protein expression; format: cell-based; conditions: HEK-293 cells stably expressing HiBit-tagged ABCA4 P1380L; 24 h treatment; top concentration 30 μM; read-out: ABCA4 P1380L EC50, Emax
T1 construct: expressed in transfected cells
Experimental: Exemplary compounds were evaluated in an A4 correction dose-response assay.
To assess activity against ABCA4 P1380L, the compounds were screened in an assay measuring protein expression, using cells transfected with cDNA encoding HiBit-tagged ABCA4 P1380L. Here we describe an assay for measuring the expression of the P1380L variant of human ABCA4 (henceforth referred to as ABCA4 P1380L) and the use of this assay to measure the efficacy of compounds to increase the expression of ABCA4 P1380L. The assay was designed to characterize the efficacy and potency of compounds to increase the expression of ABCA4 P1380L by calculating an Emax and EC50 value. […] (5% CO2, humidified). […] After the four-hour incubation period, 60 nL of DMSO solutions are transferred to the assay plate.
Dose response curves include eleven doses with the top final concentration at 30 μM in 0.3% DMSO. Liquid handling is performed with ECHO 550 Acoustic Liquid Handler (Labcyte). After addition of compound treatment, cells are incubated for 24 hours at 37° C. (5% CO2, humidified). After the 24-hour treatment, plates are allowed to equilibrate to room temperature for 10 minutes. Using Dragonfly Automated Liquid Handler (TTP LabTech), 20 μl of HiBit lytic assay reagent (Promega, product #N3040), which is prepared according to manufacturer's instructions, is added to each well. The plates are rotated at room temperature for 2 minutes and incubated for 1 hour at 25° C. before luminescent signal is acquired using an EnVision Multimode Plate Reader (PerkinElmer).

ABCC6 WT = target: T2, ABCC6 WT (Homo sapiens, UniProt O95255); experiment: ABCC6 WT assay: HiBit protein expression; format: cell-based; conditions: HEK-293 cells transiently expressing HiBit-tagged ABCC6 WT; 24 h treatment; top concentration 20 μM; read-out: ABCC6 WT EC50, Emax
T2 construct: expressed in transfected cells; host or cells: HEK-293 (transient, Lipofectamine 2000)
From the text: To assess activity against ABCC6, compounds were screened in an assay measuring protein expression, using cells transfected with cDNA encoding HiBit-tagged ABCC6 wild-type.
Described here is an assay for measuring the expression of the wild type of human ABCC6 (henceforth referred to as ABCC6 WT) and the use of this assay to measure the efficacy of compounds to increase the expression of ABCC6 WT. The assay was designed to characterize the efficacy and potency of compounds to increase the expression of ABCC6 WT by calculating an Emax and EC50 value. HEK-293 cells transiently expressing ABCC6 WT (HEK-293/ACC6 WT) were used for this assay and were cultured at 37° C. (5% CO2, humidified) in Dulbecco's Modified Eagle Medium (DMEM, Gibco product #11965-092) supplemented with 10% fetal bovine serum. For the assay, HEK-293 cells were transfected with […]/10 cm plate of cDNA encoding HiBit-tagged ABCC6 wild-type using Lipofectamine 2000 (Thermo Fisher, product #11668019). Twenty-four hours after transfection, the HEK-293/ACC6 WT cells were seeded in white/opaque 384-well plates (PerkinElmer, cat. No. 6007688) at 10,000 cells/well in 20 μl growth medium and allowed to settle for 4 hours at 37° C. (5% CO2, humidified). Compound serial dilutions are prepared in growth medium as ten times (10×) the final concentration and using a dilution factor of 2. After the four-hour incubation period, 2.2 μL of the 10× dilutions are transferred to the assay plate.
Dose response curves include ten doses with the top final concentration at 20 μM in 0.15% DMSO. Liquid handling is performed with an Integra mini96-tip head (INTEGRA). After addition of compound treatment, cells are incubated for 24 hours at 37° C. (5% CO2, humidified). After the 24-hour treatment, plates are allowed to equilibrate for 15 minutes at room temperature. Using Integra mini-96, 20 μl of HiBit lytic assay reagent (Promega, product #N3040), which is prepared according to manufacturer's instructions, is added to each well. The plates are rotated at room temperature for 10 minutes and luminescent signal is acquired using an EnVision Multimode Plate Reader (PerkinElmer).
Results are presented below in Table 4 for ABCC6 WT.

T1 sequence (P78363 whole entry P1380L): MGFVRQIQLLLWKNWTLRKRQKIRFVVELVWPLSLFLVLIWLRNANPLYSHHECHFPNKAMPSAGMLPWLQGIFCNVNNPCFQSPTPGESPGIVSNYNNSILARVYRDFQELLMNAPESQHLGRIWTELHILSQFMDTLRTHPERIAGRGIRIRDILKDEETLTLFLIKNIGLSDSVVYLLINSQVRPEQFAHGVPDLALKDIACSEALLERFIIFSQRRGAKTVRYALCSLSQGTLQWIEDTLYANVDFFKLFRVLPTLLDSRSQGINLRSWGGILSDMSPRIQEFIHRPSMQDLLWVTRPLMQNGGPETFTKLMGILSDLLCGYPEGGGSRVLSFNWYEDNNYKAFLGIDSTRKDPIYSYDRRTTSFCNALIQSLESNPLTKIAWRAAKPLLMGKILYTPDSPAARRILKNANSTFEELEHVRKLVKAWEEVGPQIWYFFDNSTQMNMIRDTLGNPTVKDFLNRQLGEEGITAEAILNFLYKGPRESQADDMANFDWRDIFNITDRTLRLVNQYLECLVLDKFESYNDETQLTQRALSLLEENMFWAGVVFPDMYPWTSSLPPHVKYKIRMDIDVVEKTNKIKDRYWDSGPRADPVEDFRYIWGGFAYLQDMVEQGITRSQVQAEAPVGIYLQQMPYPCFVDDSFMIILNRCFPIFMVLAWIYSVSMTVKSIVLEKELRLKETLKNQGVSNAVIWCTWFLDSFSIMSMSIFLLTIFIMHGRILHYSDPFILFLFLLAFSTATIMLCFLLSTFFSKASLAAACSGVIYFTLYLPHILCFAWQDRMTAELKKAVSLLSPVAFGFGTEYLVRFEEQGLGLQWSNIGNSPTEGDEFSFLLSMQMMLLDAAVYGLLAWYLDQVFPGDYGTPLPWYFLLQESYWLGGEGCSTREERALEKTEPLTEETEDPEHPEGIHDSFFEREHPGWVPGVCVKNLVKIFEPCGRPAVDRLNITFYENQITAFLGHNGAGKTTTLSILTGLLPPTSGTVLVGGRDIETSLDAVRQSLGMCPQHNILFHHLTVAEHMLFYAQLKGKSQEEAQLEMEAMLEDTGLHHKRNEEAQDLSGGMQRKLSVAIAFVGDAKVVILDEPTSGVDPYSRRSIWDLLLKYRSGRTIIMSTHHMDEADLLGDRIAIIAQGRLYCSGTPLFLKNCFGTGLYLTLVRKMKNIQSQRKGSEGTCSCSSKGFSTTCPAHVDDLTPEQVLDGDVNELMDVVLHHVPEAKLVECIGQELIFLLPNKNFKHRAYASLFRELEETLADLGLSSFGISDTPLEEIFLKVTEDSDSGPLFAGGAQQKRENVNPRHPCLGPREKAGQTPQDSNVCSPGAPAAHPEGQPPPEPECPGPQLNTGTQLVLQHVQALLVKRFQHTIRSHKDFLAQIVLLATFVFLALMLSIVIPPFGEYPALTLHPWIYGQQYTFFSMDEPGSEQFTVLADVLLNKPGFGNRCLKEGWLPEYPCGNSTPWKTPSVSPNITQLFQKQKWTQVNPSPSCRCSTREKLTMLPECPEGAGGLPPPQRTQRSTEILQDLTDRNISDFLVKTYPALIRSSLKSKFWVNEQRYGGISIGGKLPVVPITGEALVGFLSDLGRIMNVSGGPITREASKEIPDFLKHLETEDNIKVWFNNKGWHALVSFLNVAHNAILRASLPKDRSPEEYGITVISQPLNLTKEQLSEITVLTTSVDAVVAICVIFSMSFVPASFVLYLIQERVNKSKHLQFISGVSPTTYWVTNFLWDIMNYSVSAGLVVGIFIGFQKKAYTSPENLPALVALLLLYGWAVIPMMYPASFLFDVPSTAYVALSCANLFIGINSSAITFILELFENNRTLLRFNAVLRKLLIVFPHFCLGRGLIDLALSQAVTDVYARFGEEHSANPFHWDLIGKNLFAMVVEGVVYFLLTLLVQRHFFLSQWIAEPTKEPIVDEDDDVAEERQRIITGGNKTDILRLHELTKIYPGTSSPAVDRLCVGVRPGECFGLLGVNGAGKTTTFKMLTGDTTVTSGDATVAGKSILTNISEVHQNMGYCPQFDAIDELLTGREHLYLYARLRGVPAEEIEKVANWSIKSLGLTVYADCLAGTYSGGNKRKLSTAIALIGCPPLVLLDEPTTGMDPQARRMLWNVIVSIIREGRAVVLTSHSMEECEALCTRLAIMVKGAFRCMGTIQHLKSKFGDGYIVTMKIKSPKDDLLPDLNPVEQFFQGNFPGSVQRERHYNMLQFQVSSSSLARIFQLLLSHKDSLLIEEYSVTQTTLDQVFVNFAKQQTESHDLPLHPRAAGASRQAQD
T2 sequence (O95255 whole entry): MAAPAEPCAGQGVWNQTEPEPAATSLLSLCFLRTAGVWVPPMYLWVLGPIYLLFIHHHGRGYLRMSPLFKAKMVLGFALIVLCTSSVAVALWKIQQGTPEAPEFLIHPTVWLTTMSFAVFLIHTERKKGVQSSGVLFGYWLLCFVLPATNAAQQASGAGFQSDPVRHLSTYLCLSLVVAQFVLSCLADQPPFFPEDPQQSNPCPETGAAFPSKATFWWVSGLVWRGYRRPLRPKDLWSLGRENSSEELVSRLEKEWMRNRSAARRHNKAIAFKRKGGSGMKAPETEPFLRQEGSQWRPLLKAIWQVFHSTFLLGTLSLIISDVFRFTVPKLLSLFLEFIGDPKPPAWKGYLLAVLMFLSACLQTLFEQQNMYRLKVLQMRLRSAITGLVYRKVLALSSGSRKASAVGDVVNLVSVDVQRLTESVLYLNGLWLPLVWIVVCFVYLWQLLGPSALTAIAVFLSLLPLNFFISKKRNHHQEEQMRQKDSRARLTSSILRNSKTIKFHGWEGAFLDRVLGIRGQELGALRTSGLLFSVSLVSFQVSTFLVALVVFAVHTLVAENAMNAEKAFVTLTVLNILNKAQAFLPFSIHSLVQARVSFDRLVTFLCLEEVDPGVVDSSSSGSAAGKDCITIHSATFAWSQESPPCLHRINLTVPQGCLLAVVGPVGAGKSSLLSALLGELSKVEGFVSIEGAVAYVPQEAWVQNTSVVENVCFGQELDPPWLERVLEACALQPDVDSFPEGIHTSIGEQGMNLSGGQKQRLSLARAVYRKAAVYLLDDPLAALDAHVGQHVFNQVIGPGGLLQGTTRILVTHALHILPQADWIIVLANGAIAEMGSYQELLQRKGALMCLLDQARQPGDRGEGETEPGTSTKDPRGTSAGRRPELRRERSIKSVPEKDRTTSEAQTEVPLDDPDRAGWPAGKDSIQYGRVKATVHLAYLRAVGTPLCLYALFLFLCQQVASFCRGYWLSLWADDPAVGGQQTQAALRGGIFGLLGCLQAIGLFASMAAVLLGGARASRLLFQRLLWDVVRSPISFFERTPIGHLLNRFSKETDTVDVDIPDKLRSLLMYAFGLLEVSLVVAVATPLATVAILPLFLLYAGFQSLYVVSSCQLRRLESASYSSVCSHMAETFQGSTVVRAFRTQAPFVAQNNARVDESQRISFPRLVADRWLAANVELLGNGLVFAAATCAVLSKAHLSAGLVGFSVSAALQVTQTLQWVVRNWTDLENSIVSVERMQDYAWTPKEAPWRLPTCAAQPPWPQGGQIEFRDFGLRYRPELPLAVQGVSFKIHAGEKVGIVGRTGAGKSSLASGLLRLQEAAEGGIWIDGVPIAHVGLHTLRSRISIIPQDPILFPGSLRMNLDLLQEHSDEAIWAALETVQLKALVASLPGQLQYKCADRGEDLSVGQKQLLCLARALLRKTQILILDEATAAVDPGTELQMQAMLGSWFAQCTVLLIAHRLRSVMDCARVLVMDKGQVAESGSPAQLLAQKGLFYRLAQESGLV

SMILES | EC50 (ABCA4 P1380L) [µM] | EC50 (ABCC6 WT) [µM]
Cc1cc(C2CC2)nc(C)c1Oc1nc(-c2cncc(C#N)c2)ccc1NS(C)(=O)=O [Compound I-4] | < 1 | < 1
Cc1cc(C)c(Oc2nc(-c3cncc(C#N)c3)ccc2NS(C)(=O)=O)c(C)n1 [Compound I-5] | < 1 | < 1
Cc1cc(C)c(Oc2nc(-c3ccc(C#N)nc3C)ccc2NS(C)(=O)=O)c(C)c1 [Compound I-6] | 10 to 25 | < 1
Cc1cc(C)c(Oc2nc(-c3ccc(C#N)nc3)ccc2NS(C)(=O)=O)c(C)n1 [Compound I-7] | < 1 | < 1
Cc1cc(C)c(Oc2nc(-c3cnc(C#N)c(Cl)c3)ccc2NS(C)(=O)=O)c(C)n1 [Compound I-8] | < 1 | < 1
Cc1cc(C)c(Oc2nc(-c3cncc(Cl)c3)ncc2NS(C)(=O)=O)c(C)c1 [Compound I-9] | > 25 | < 1
Cc1cc(C)c(Oc2nc(-c3cncc(C#N)c3)ncc2NS(C)(=O)=O)c(C)c1 [Compound I-10] | < 1 | < 1
CNS(=O)(=O)c1ccc(-c2cncc(Cl)c2)nc1Oc1c(C)cc(C)cc1C [Compound I-95] | < 1 | < 1
Cc1cc(C)c(Oc2nc(-c3cncc(Cl)c3)ccc2S(=O)(=O)N2CCCC2)c(C)c1 [Compound I-96] | > 25 | 1 to 10
Cc1cc(C)c(Oc2nc(-c3cncc(Cl)c3)ccc2S(=O)(=O)N(C)C)c(C)c1 [Compound I-97] | > 25 | < 1
Cc1cc(C)c(Oc2nc(-c3cncc(Cl)c3)ccc2S(=O)(=O)NC2CC2)c(C)c1 [Compound I-98] | > 25 | < 1
Cc1cc(C)c(Oc2nc(-c3cncc(Cl)c3)ccc2S(=O)(=O)NC(C)(C)C)c(C)c1 [Compound I-99] | > 25 | 1 to 10
Cc1cc(C)c(Oc2nc(-c3cncc(Cl)c3)ccc2S(N)(=O)=O)c(C)c1 [Compound I-100] | 10 to 25 | < 1
Cc1cc(C)c(Oc2nc(-c3cccc(Cl)c3)ccc2S(=O)(=O)NC2CCOC2)c(C)c1 (stereo not shown) [Compound I-101] | 1 to 10 | 1 to 10
Cc1cc(C)c(Oc2nc(-c3cccc(Cl)c3)ccc2S(N)(=O)=O)c(C)c1 [Compound I-102] | < 1 | 1 to 10
Cc1cc(C)c(Oc2nc(-c3cncc(Cl)c3)ccc2S(C)(=N)=O)c(C)c1 (stereo not shown) [Compound I-103] | 1 to 10 | < 1
Cc1cc(C)c(Oc2nc(-c3cncc(Cl)c3)ccc2S(C)(=O)=O)c(C)c1 [Compound I-104] | 1 to 10 | 1 to 10
Cc1cc(C(F)(F)F)nc(C2CC2)c1Oc1nc(-c2cncc(C#N)c2)ccc1S(=O)(=O)NC1CC1 [Compound I-133] | < 1 | < 1
Cc1cc(C(F)F)nc(C2CC2)c1Oc1nc(-c2cncc(C#N)c2)ccc1N(C)S(=O)(=O)C1CC1 [Compound I-134] | > 25 | 1 to 10
Cc1cc(C(F)F)nc(C2CC2)c1Oc1nc(-c2cncc(C#N)c2)ccc1N(C)S(C)(=O)=O [Compound I-135] | > 25 | 1 to 10
Cc1cc(C)c(Oc2nc(-c3cncc(C#N)c3)ccc2N(C)S(=O)(=O)c2cccnc2)c(C2CC2)n1 [Compound I-136] | 1 to 10 | 1 to 10
Cc1cc(C(F)F)nc(C2CC2)c1Oc1nc(-c2cncc(C#N)c2)ccc1NS(C)(=O)=O [Compound I-137] | < 1 | < 1

SMILES | EC50 (ABCA4 P1380L) [µM] | EC50 (ABCC6 WT) [µM]
CS(=O)(=O)Nc1ccc(-c2cncc(C#N)c2)nc1Oc1c(C2CC2)nc(C(F)(F)F)nc1C1CC1 [Compound I-138] | < 1 | < 1
Cc1cc(C(F)(F)F)nc(C2CC2)c1Oc1nc(-c2cncc(C#N)c2)ccc1N(C)S(=O)(=O)C1CC1 [Compound I-139] | > 25 | < 1
Cc1cc(C(F)(F)F)nc(C2CC2)c1Oc1nc(-c2cncc(C#N)c2)ccc1NS(=O)(=O)C1CC1 [Compound I-140] | < 1 | < 1
Cc1cc(C(F)(F)F)nc(C2CC2)c1Oc1nc(-c2cncc(C#N)c2)ccc1NS(=O)(=O)C(C)C [Compound I-141] | < 1 | < 1
Cc1nc(C(F)(F)F)nc(C2CC2)c1Oc1nc(-c2cncc(C#N)c2)ccc1N(C)S(C)(=O)=O [Compound I-142] | > 25 | ≥ 25
Cc1nc(C2COC2)nc(C2CC2)c1Oc1nc(-c2cncc(C#N)c2)ccc1NS(C)(=O)=O [Compound I-143] | < 1 | < 1
Cc1nc(C(F)F)nc(C2CC2)c1Oc1nc(-c2cncc(C#N)c2)ccc1NS(C)(=O)=O [Compound I-144] | < 1 | < 1
Cc1nc(C(F)(F)F)nc(C2CC2)c1Oc1nc(-c2cncc(C#N)c2)ccc1NS(C)(=O)=O [Compound I-145] | < 1 | < 1
Cc1cc(C2CC2)nc(C2CC2)c1Oc1nc(-c2cncc(C#N)c2)ccc1N(C)S(C)(=O)=O [Compound I-146] | 1 to 10 | ≥ 25
Cc1cc(C)c(Oc2nc(-c3cncc(C#N)c3)ccc2NS(=O)(=O)c2cccnc2)c(C2CC2)n1 [Compound I-147] | < 1 | < 1
CCS(=O)(=O)N(C)c1ccc(-c2cncc(C#N)c2)nc1Oc1c(C)cc(C(F)(F)F)nc1C1CC1 [Compound I-148] | < 1 | < 1
Cc1nc(C(F)(F)F)nc(C2CC2)c1Oc1nc(-c2cncc(Cl)c2)ccc1N(C)S(C)(=O)=O [Compound I-149] | > 25 | < 25
Cc1nc(C2CC2)nc(C2CC2)c1Oc1nc(-c2cncc(C#N)c2)ccc1NS(C)(=O)=O [Compound I-150] | < 1 | < 1
Cc1nc(C(F)(F)F)nc(C2CC2)c1Oc1nc(-c2cncc(Cl)c2)ccc1NS(C)(=O)=O [Compound I-151] | < 1 | < 1
CCS(=O)(=O)Nc1ccc(-c2cncc(C#N)c2)nc1Oc1c(C)cc(C(F)(F)F)nc1C1CC1 [Compound I-152] | < 1 | < 1
Cc1cc(C(F)(F)F)nc(C2CC2)c1Oc1nc(-c2cncc(Cl)c2)ccc1N(C)S(C)(=O)=O [Compound I-153] | > 25 | 1 to 10
Cc1nc(C(F)(F)F)cc(C2CC2)c1Oc1nc(-c2cncc(C#N)c2)ccc1N(C)S(C)(=O)=O [Compound I-154] | < 25 | < 25
Cc1nc(C(F)(F)F)cc(C2CC2)c1Oc1nc(-c2cncc(C#N)c2)ccc1NS(C)(=O)=O [Compound I-155] | < 1 | < 1
Cc1cc(C(F)(F)F)nc(C2CC2)c1Oc1nc(-c2cncc(C#N)c2)ccc1N(C)S(C)(=O)=O [Compound I-156] | < 25 | ≥ 25
Cc1nc(C)c(Oc2nc(-c3cncc(C#N)c3)ccc2N(C)S(C)(=O)=O)c(C2CC2)n1 [Compound I-157] | > 25 | ≥ 25
Cc1cc(C(F)(F)F)nc(C2CC2)c1Oc1nc(-c2cncc(Cl)c2)ccc1NS(C)(=O)=O [Compound I-158] | < 1 | < 1
Cc1nc(N2CC(C#N)C2)nc(C)c1Oc1nc(-c2cncc(C#N)c2)ccc1NS(C)(=O)=O [Compound I-159] | < 25 | < 1
